By melting point is commonly meant the temperature of the solid-liquid transition.

This passage reports melting point results from patent US7968566B2, “Pyrrolo(2,3-b) pyridine derivatives, the preparation and the pharmaceutical use thereof in the form of kinase inhibitors” (Aventis Pharma S.A., priority 2004, dated 2011).

Molecules are shown by their SMILES.

Regarding `COc1cc2c(-c3cc4cc(Cl)cnc4[nH]3)cn(C)c2cc1OC` [Example 103, 5-chloro-2-(5,6-dimethoxy-1-methyl-1H-indol-3-yl)-1H-pyrrolo[2,3-b]pyridine], the melting point was 192 °C.

Molecule `COc1cc2c(-c3cc4c(C#N)ccnc4[nH]3)cn(CCN3CCN(C)CC3)c2cc1OC` [Example 102, 2-{5,6-dimethoxy-1-[2-(4-methylpiperazin-1-yl)ethyl]-1H-indol-3-yl}-1H-pyrrolo[2,3-b]pyridine-4-carbonitrile] showed a melting point of 196 °C. To `COc1cc2c(-c3cc4cc(F)cnc4[nH]3)cn(CCN3CCOCC3)c2cc1OC` [Example 105, 2-[5,6-dimethoxy-1-(2-morpholin-4-ylethyl)-1H-indol-3-yl]-5-fluoro-1H-pyrrolo[2,3-b]pyridine] belongs 205 to 210 °C.

With `COc1cc2c(-c3cc4cc(F)cnc4[nH]3)cn(CCN3CCN(C)CC3)c2cc1OC` [Example 106, 2-{5,6-Dimethoxy-1-[2-(4-methylpiperazin-1-yl)ethyl]-1H-indol-3-yl}-5-fluoro-1H-pyrrolo[2,3-b]pyridine], the melting point came to 188 °C. To `COc1cc2c(-c3cc4cc(F)cnc4[nH]3)cn(C)c2cc1OC` [Example 104, 2-(5,6-dimethoxy-1-methyl-1H-indol-3-yl)-5-fluoro-1H-pyrrolo[2,3-b]pyridine] belongs 283 °C. The value for `COc1cc2c(-c3cc4c(Cl)ccnc4[nH]3)cn(CCN3CCN(C)CC3)c2cc1OC` [Example 101, 4-chloro-2-{5,6-dimethoxy-1-[2-(4-methylpiperazin-1-yl)ethyl]-1H-indol-3-yl}-1H-pyrrolo[2,3-b]pyridine] was 192 °C; that for `COc1cc(OC)c2c(c1)c(-c1cc3cccnc3[nH]1)cn2C` [Example 175, 2-(5,7-Dimethoxy-1-methyl-1H-indol-3-yl)-1H-pyrrolo[2,3-b]pyridine] was 220 °C; that for `COc1cc2c(-c3cc4c(Cl)ccnc4[nH]3)cn(CCN3CCC(CCO)CC3)c2cc1OC` [Example 100, 2-(1-{2-[3-(4-chloro-1H-pyrrolo[2,3-b]pyridin-2-yl)-5,6-dimethoxyindol-1-yl]ethyl}piperidin-4-yl)ethanol] was 200 °C. The value for `COc1cc2c(-c3cc4c(Cl)ccnc4[nH]3)cn(CCN3CCOCC3)c2cc1OC` [Example 99, 4-chloro-2-[5,6-dimethoxy-1-(2-morpholin-4-ylethyl)-1H-indol-3-yl]-1H-pyrrolo[2,3-b]pyridine] was 240 °C.
